Measurements taken from patent US20090318493A1 (Roche Palo Alto LLC, priority 2008, published 2009).
Where two headings read alike, the source gives them in different places.

How the values were obtained:
Assay type in all cases: binding
hSERT transporter = molecular target: T1, hSERT transporter (Homo sapiens, UniProt P31645); experiment: Human serotonin transporter (hSERT) scintillation proximity assay, competition with [3H]-Citalopram
T1 construct: expressed in transfected cells; membranes prepared
T1 sequence (P31645 whole entry): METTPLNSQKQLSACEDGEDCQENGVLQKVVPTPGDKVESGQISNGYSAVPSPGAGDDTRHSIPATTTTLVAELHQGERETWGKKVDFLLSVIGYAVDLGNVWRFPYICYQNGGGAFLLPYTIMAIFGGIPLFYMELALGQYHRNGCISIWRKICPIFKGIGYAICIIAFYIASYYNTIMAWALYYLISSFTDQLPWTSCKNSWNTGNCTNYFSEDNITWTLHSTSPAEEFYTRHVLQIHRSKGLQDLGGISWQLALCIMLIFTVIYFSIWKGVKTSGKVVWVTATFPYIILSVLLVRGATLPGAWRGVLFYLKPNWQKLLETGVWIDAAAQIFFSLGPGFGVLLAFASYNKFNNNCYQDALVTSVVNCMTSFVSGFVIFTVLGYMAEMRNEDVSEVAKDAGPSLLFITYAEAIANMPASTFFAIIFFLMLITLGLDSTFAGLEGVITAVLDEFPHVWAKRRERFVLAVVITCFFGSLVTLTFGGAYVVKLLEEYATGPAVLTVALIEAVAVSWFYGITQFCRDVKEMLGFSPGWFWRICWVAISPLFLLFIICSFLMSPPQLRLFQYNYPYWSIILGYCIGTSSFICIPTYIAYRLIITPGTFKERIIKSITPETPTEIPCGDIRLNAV
Description: Screening for Human Serotonin Transporter (hSERT) Antagonists Using a Scintillation Proximity Assay (SPA)
The screening assay of this example was used to determine the affinity of ligands at the hSERT transporter by competition with [^3H]-Citalopram.
Scintillation Proximity Assay (SPA) works by bringing radioligand within close proximity to the bead's scintillant to stimulate light emission. In this assay, the receptor-containing membranes were pre-coupled to the SPA beads and the binding of the appropriate radioligand to the transporter was measured. The light emission was proportional to the amount of bound radioligand. Unbound radioligand produced no signal as a result of distant proximity to scintillant (lack of energy transfer).
Cells are released from culture flasks using PBS for 1-2 minutes. The cells were subsequently centrifuged at 1000 g's for 5 minutes and resuspended in PBS prior to being used in the membrane preparation.
(§1) Cell membranes were prepared using a membrane preparation buffer of 50 mM TRIS (pH 7.4). Cell membranes were prepared from a single cube (7.5×10^9 cells total). Cells were homogenized using a Polytron (setting medium for a 4 second burst). The homogenate was then centrifuged at 48,000×g for 15 minutes, the supernatant subsequently removed and discarded, and the pellet resuspended with fresh buffer. After a second centrifugation, the pellet was re-homogenized and brought to a final volume determined during the assay. Typically, membrane portions were aliquoted in 3 mg/ml (w:v). and stored at −80° C.
Compounds of the invention were diluted from 10 mM to 0.1 nM FAC (10 point curves, whole log/half log dilutions) via a Beckman Biomek 2000 using a serial dilution protocol. The test compounds were then transferred (20 μl/well) and the [^3H]-Citalopram radioligand was added at 50 μl/well. Membrane and beads were prepared to a ratio of 10 μg: 0.7 mg, with 0.7 mg PVT-WGA Amersham beads (Cat# RPQ0282V) added per well. 130 μl of the membrane: bead mixture was added to the assay plate.
The % inhibition was calculated for each compound tested [(Compound counts per minute (CPM) at maximum concentration-Non-Specific CPM)/Total CPM*100].
(§2) where max=total binding, min=non specific binding, x=concentration (M) of the tested compound and n=Hill slope. The inhibition dissociation constant (Ki) of each compound was determined according to the method of Cheng-Prusoff and then converted into negative logarithm (pKi) of the Ki.

hNET transporter = molecular target: T2, hNET transporter (Homo sapiens, UniProt P23975); experiment: Human norepinephrine transporter (hNET) scintillation proximity assay, competition with [3H]-Nisoxetine
T2 construct: expressed in transfected cells; membranes prepared
T2 sequence (P23975 whole entry): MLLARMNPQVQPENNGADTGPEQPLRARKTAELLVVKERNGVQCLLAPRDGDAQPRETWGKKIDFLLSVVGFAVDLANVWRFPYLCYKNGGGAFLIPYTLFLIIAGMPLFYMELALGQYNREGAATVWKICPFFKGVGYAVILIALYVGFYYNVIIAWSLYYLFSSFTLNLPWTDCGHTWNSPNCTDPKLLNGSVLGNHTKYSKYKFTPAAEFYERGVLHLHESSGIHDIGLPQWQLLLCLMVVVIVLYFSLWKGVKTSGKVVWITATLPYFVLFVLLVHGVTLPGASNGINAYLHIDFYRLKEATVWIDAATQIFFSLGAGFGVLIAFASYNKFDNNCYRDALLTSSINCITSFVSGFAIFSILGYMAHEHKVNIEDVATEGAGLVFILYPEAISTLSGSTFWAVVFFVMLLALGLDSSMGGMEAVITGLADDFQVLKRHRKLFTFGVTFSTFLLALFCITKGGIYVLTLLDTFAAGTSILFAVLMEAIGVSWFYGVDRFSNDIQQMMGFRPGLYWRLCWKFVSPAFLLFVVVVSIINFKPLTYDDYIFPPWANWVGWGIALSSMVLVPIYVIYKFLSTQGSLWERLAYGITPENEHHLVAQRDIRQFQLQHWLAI
Method: This assay was used to determine the affinity of ligands for the hNET transporter by competition with [^3H]-Nisoxetine. As in the hSERT assay of the above example, receptor-containing membranes were pre-coupled to the SPA beads and the binding of the appropriate radioligand to the transporter was measured. The light emission was proportional to the amount of bound radioligand, with unbound radioligand producing no signal.
HEK-293 cells (Tatsumi et al., Eur. J. Pharmacol. 1997, 30, 249-258) stably expressing recombinant hNET (Clone: HEK-hNET #2) were maintained with media (DMEM hi glucose with 10% FBS, 300 μg/ml G418 and 2 mM L-Glutamine) and incubated at 37° C. with 5% CO2. Cells were released from culture flasks using PBS for 1-2 minutes. The cells were subsequently centrifuged at 1000 g's for 5 minutes and resuspended in PBS prior to being used in the membrane preparation.
as §1, with “(7.5×10^9cells” for “(7.5×10^9 cells”, “3-6 mg/mil” for “3 mg/ml”
^3[H] […] Compounds of the invention were diluted from 10 mM to 0.1 nM FAC (10 point curves, whole log /half log dilutions) via a Beckman Biomek 2000 using a serial dilution protocol. The test compounds were then transferred (20 μl/well) and the radioligand was added at 50 μl/well. Membrane and beads were prepared to a ratio of 10 μg: 0.7 mg, with 0.7 mg PVT-WGA Amersham beads (Cat# RPQ0282V) added per well. 130 μl of the membrane: bead mixture was added to the assay plate. The mixtures were allowed to stand at room temperature for one hour, and were then counted on a Packard TopCount LCS, a generic SPA counting protocol settings (Energy Range: Low, Efficiency Mode: Normal, Region A: 1.50-35.00, Region B: 1.50-256.00, Count Time (min.): 0.40, Background Subtract: none, Half-Life Correction: no, Quench Indicator: tSIS, Platemap blank subtraction: No, Cross talk reduction: Off).
The % inhibition was calculated for each compound tested [(Compound CPM at maximum concentration-Non-Specific CPM)/Total CPM*100]. The concentration producing 50% inhibition (IC50) was determined using an iterative non-linear curve fitting technique with Activity Base/Xlfit using the following equation:
as §2

hDAT = molecular target: T3, hDAT (Homo sapiens, UniProt Q01959); experiment: Human dopamine transporter scintillation proximity assay, competition with [3H]-Vanoxerine
T3 construct: expressed in transfected cells; plated whole cells
T3 sequence (Q01959 whole entry): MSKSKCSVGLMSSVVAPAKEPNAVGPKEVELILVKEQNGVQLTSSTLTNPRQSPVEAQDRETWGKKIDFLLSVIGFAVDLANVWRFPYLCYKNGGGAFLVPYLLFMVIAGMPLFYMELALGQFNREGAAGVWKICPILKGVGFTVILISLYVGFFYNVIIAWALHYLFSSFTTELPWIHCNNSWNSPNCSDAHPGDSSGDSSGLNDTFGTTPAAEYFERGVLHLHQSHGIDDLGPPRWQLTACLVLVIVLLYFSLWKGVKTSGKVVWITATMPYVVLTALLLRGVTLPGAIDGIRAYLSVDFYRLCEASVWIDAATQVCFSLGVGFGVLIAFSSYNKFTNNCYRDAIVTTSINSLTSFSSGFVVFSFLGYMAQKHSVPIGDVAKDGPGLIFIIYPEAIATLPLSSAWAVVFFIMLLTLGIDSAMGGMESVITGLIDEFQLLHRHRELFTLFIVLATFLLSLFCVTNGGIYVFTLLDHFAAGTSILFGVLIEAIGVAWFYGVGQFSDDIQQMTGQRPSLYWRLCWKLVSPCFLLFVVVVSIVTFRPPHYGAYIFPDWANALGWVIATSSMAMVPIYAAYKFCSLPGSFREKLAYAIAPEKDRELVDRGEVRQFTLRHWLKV
Method: This assay was used to determine the affinity of ligands for the dopamine transporter by competition with [^3H]-Vanoxerine.
Cells were plated four hours prior to experiment by placing approximately 30,000 cells per well (in PBS) on white, opaque Cell-Tak coated 96 well plates. Extra buffer was apriated from the cell plates using an ELx405 plate washer.
Compounds of the invention were diluted from 10 mM to 0.1 nM FAC (10 point curves, whole log/half log dilutions) via a Beckman Biomek 2000 using a 10-point dilution protocol. The mixtures were allowed to stand at room temperature for 30 minutes, and were then counted on a Packard TopCount LCS, a generic SPA counting protocol settings, Count Time (min.): 0.40, Background Subtract: none, Half-Life Correction: none, Quench Indicator: tSIS, Platemap blank subtraction: none, Cross talk reduction: Off).
The % inhibition was calculated for each compound tested [(Compound CPM at maximum concentration-Non-Specific CPM)/Total CPM*100].
as §2

[1] = Table 1, read-out: pIC50 SERT (converted)
[2] = Table 1, read-out: pIC50 NET (converted)
[3] = Table 1, read-out: pIC50 DAT (converted)

SMILES | IC50 (hNET transporter; [2]) [nM] | IC50 (hDAT; [3]) [nM] | IC50 (hSERT transporter) [nM] | IC50 (hDAT) [nM] | also measured
CCCC1(C(=O)c2ccc(Cl)c(Oc3ccc(C(F)(F)F)cc3)c2)CCNC1 (stereo not shown) [Compound 32, [4-Chloro-3-(4-trifluoromethyl-phenoxy)-phenyl]-(3-propyl-pyrrolidin-3-yl)-methanone] | 200 | 331 | – | – | IC50 (hSERT transporter; [1]): 166 nM
Cc1cc(C(=O)C2(CCC(C)(C)C)CCNC2)ccc1Cl (stereo not shown) [Compound 1, (4-Chloro-3-methyl-phenyl)-[3-(3,3-dimethyl-butyl)-pyrrolidin-3-yl]-methanone] | 5.5 | – | 1.51 | 6.31 | –
CC[C@@]1(C(=O)c2ccc(Cl)c(Cl)c2)CC[C@@H]2CC[C@H]1N2 [Compound 48, (3,4-Dichloro-phenyl)-((1R,2R,5R)-2-ethyl-8-aza-bicyclo[3.2.1]oct-2-yl)-methanone] | 1150 | – | 7.76 | 209 | –
CCCC1(C(=O)c2ccc(Cl)c(OCc3ccccc3)c2)CCNC1 (stereo not shown) [Compound 10, (3-Benzyloxy-4-chloro-phenyl)-(3-propyl-pyrrolidin-3-yl)-methanone] | 1700 | – | 20.4 | – | –
CC(C)CC1(C(=O)c2ccc(Cl)c(Oc3ccccc3)c2)CCNC1 (stereo not shown) [Compound 31, (4-Chloro-3-phenoxy-phenyl)-(3-isobutyl-pyrrolidin-3-yl)-methanone] | 1.91 | – | 3.72 | 26.3 | –
CCCC1(C(=O)c2ccc(Cl)c(-c3ccn[nH]3)c2)CCCNC1 (stereo not shown) [Compound 50, [4-Chloro-3-(2H-pyrazol-3-yl)-phenyl]-(3-propyl-piperidin-3-yl)-methanone] | – | 4270 | 7.76 | – | IC50 (hNET transporter): 30.9 nM
CCCC1(C(=O)c2ccc(Cl)c(N(C)c3ccccc3)c2)CCNCC1 [Compound 51, [4-Chloro-3-(methyl-phenyl-amino)-phenyl]-(4-propyl-piperidin-4-yl)-methanone] | 162 | 195 | – | – | IC50 (hSERT transporter; [1]): 18.6 nM
CCCC1(C(=O)c2ccc3ccccc3c2)CCNCC1 [Compound 36, Naphthalen-2-yl-(4-propyl-piperidin-4-yl)-methanone] | 15.8 | – | 0.102 | 9.12 | –
CC(C)(C)CCC1(C(=O)c2ccc(Cl)c(Oc3ccc(F)cc3)c2)CCNC1 (stereo not shown) [Compound 8, [4-Chloro-3-(4-fluoro-phenoxy)-phenyl]-[3-(3,3-dimethyl-butyl)-pyrrolidin-3-yl]-methanone] | 77.6 | 1410 | – | – | IC50 (hSERT transporter; [1]): 120 nM
CCCC[C@@]1(C(=O)c2ccc(Cl)c(Cl)c2)CC[C@@H]2CC[C@H]1N2C (mixture of isomers) [Compound 54, ((1R,2R,SR)-2-Butyl-8-methyl-8-aza-bicyclo[3.2.1]oct-2-yl)-(3,4-dichloro-phenyl)-methanone] | 501 | – | 331 | 28.2 | –
CC[C@]1(C(=O)c2ccc(Cl)c(Cl)c2)CC[C@@H]2CC[C@H]1N2 [Compound 49, (3,4-Dichloro-phenyl)-((1R,2S,5R)-2-ethyl-8-aza-bicyclo[3.2.1]oct-2-yl)-methanone] | 5130 | – | 631 | 1580 | –
CC(C)CC1(C(=O)c2cc(F)c(N)c(Cl)c2)CCNC1 (stereo in doubt) [Compound 24, (4-Amino-3-chloro-5-fluoro-phenyl)-((R)-3-isobutyl-pyrrolidin-3-yl)-methanone] | 20 | – | 24.5 | 25.1 | –
CCCC1(C(=O)c2ccc(Cl)c(OC(F)(F)F)c2)CCNC1 (stereo not shown) [Compound 14, (4-Chloro-3-trifluoromethoxy-phenyl)-(3-propyl-pyrrolidin-3-yl)-methanone] | 302 | – | 2.75 | – | –
CCCC1(C(=O)c2ccc(Br)c(Oc3ccccc3)c2)CCNC1 (stereo not shown) [Compound 20, (4-Bromo-3-phenoxy-phenyl)-(3-propyl-pyrrolidin-3-yl)-methanone] | 7.94 | – | 12.6 | – | –
CCCC1(C(=O)c2ccc(-n3ccnc3)c(Br)c2)CCCNC1 (stereo not shown) [Compound 57, (3-Bromo-4-imidazol-1-yl-phenyl)-(3-propyl-piperidin-3-yl)-methanone] | – | 4270 | 91.2 | – | –
CC(C)(C)CCC1(C(=O)c2ccc(Cl)c(OCc3ccccc3)c2)CCNC1 (stereo not shown) [Compound 5, (3-Benzyloxy-4-chloro-phenyl)-[3-(3,3-dimethyl-butyl)-pyrrolidin-3-yl]-methanone] | 363 | 1450 | – | – | –
CCCC1(C(=O)c2ccc(Cl)c(OCC3CCOCC3)c2)CCNC1 (stereo not shown) [Compound 13, [4-Chloro-3-(tetrahydro-pyran-4-ylmethoxy)-phenyl]-(3-propyl-pyrrolidin-3-yl)-methanone] | – | – | – | – | IC50 (hSERT transporter; [1]): 145 nM
CC(C)(C)CCC1(C(=O)c2ccc(Cl)c(Oc3ccccc3F)c2)CCNC1 (stereo not shown) [Compound 9, [4-Chloro-3-(2-fluoro-phenoxy)-phenyl]-[3-(3,3-dimethyl-butyl)-pyrrolidin-3-yl]-methanone] | 45.7 | 1120 | – | – | –
CC[C@@]1(C(=O)c2ccc(Cl)c(Cl)c2)CC[C@@H]2CC[C@H]1N2C [Compound 53, (3,4-Dichloro-phenyl)-((1R,2R,5R)-2-ethyl-8-methyl-8-aza-bicyclo[3.2.1]oct-2-yl)-methanone] | – | – | 41.7 | 288 | –
CCCC1(C(=O)c2ccc3ccccc3c2)CCNC1 (stereo not shown) [naphthalen-2-yl-(3-propyl-pyrrolidin-3-yl)-methanone] | – | – | – | – | Ki (hSERT transporter; SPA, [3H]-Citalopram, approximate value, read-out: pKi human serotonin transporter (converted)): ~0.151 nM
CCCC1(C(=O)c2ccc(Cl)c(-c3cccnc3)c2)CCCNC1 (stereo not shown) [Compound 55, (4-Chloro-3-pyridin-3-yl-phenyl)-(3-propyl-piperidin-3-yl)-methanone] | – | – | – | – | IC50 (hSERT transporter; [1]): 245 nM
CCCC1(C(=O)c2ccc(Cl)c(-n3ccnc3)c2)CCCNC1 (stereo not shown) [Compound 58, (4-Chloro-3-imidazol-1-yl-phenyl)-(3-propyl-piperidin-3-yl)-methanone] | – | 1480 | 79.4 | – | –
